Test results published in PubChem BioAssay (NCI).
Where “and” joins values, the source holds several entries; their conditions need not be identical. Equal values may be shown once.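 Assay format: 96-well plates, 48-hour exposure. Here, GI50 denotes the concentration required for 50% inhibition of growth. At the TGI there is no net growth.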

Assays:
Assay in all cases: inhibition of tumour cell growth, NCI panel, 48 h
[1] = test system: HCT-15 colon
[2] = test system: HL-60(TB) leukemia
[3] = test system: NCI-H522 lung
[4] = test system: NCI/ADR-RES ovarian
[5] = test system: OVCAR-4 ovarian
[6] = test system: PC-3 prostate
[7] = test system: SF-539 CNS
[8] = test system: SR leukemia
[9] = test system: U251 CNS
[10] = test system: UO-31 renal

Structure (SMILES): COc1ccc2c(c1)C(=O)/C(=C/c1ncc([N+](=O)[O-])n1C)O2
- GI50 [1]: 0.221 µM
- TGI [1]: 0.629 µM
- GI50 [2]: 0.263 µM
- TGI [2]: 1.37 µM
- GI50 [3]: 0.192 µM
- TGI [3]: 0.449 µM
- GI50 [4]: 0.391 µM
- TGI [4]: 6.47 µM
- GI50 [5]: 2.27 µM
- TGI [5]: 7.12 µM
- GI50 [6]: 1.25 µM
- TGI [6]: 5.46 µM
- GI50 [7]: 1.55 µM
- TGI [7]: 3.41 µM
- GI50 [8]: 0.0239 µM
- TGI [8]: 1.35 µM
- GI50 [9]: 0.772 µM
- TGI [9]: 2.84 µM
- GI50 [10]: 0.494 µM
- TGI [10]: 2.53 µM

Structure (SMILES): CC(=O)OC1CC2(O)C3CCC4CC(O)CCC4(C)C3CCC2(C)C1C1=CC(=O)OC1 (stereo not given)
- TGI [1]: 0.253 µM
- TGI [2]: 0.237 µM
- TGI [3]: 0.185 µM
- TGI [4]: 0.298 µM
- TGI [5]: 0.19 µM
- TGI [6]: 0.373 µM
- TGI [7]: 0.113 µM
- TGI [8]: 0.131 µM
- TGI [9]: 0.427 µM
- TGI [10]: 0.27 µM

Structure (SMILES): N#CC1=C(N)NC(=O)NC12Nc1ccccc1S2 (stereo not given)
- GI50 [1]: 26.7 µM
- TGI [1]: 87 µM
- GI50 [2]: 34.5 µM
- TGI [2]: > 100 µM
- GI50 [3]: 28.2 µM
- TGI [3]: > 71.4 µM
- GI50 [4]: 24.7 µM
- TGI [4]: > 68.8 µM
- GI50 [5]: 43.4 µM
- TGI [5]: > 100 µM
- GI50 [6]: 28 µM
- TGI [6]: > 57.9 µM
- GI50 [7]: 20.8 µM
- TGI [7]: > 54.9 µM
- GI50 [8]: 10.4 µM
- TGI [8]: > 100 µM
- GI50 [9]: 21.4 µM
- TGI [9]: > 55 µM
- GI50 [10]: 36.2 µM
- TGI [10]: > 100 µM

Structure (SMILES): COc1cc(/C=C2\CN(C)C/C(=C\c3cc(CN4CCCCC4)c(O)c(OC)c3)C2=O)cc(CN2CCCCC2)c1O
- GI50 [1]: 3.29 µM
- TGI [1]: 12.7 µM
- GI50 [2]: 2.8 µM
- TGI [2]: 7.47 µM
- GI50 [3]: 2.68 µM
- TGI [3]: 11.9 µM
- GI50 [4]: 6.24 µM
- TGI [4]: > 100 µM
- GI50 [5]: 4.77 µM
- TGI [5]: 54.1 µM
- GI50 [6]: 4.36 µM
- TGI [6]: 26.2 µM
- GI50 [7]: 2.75 µM
- TGI [7]: 8.17 µM
- GI50 [8]: 3.15 µM
- TGI [8]: 9.37 µM
- GI50 [9]: 3.1 µM
- TGI [9]: 13.2 µM
- GI50 [10]: 3.78 µM
- TGI [10]: 17.7 µM

Structure (SMILES): COc1cc(/C=C2\CCC(CN(C)C)C2=O)ccc1OC(=O)c1ccccc1 (stereo not given)
- TGI [1]: 20.4 µM
- TGI [2]: 8.71 µM
- TGI [3]: 10.4 µM
- TGI [4]: 48.7 µM
- TGI [5]: 25.5 µM
- TGI [6]: 30 µM
- TGI [7]: 30.4 µM
- TGI [8]: 6.97 µM
- TGI [9]: 29.8 µM
- TGI [10]: 29.8 µM

Structure (SMILES): O=C(O)c1cc(N=Cc2ccccc2O)cc(C(=O)O)c1
- TGI [1]: > 100 µM
- TGI [2]: > 100 µM
- TGI [3]: > 100 µM
- TGI [4]: > 100 µM
- TGI [5]: > 100 µM
- TGI [6]: > 100 µM
- TGI [7]: > 100 µM
- TGI [8]: > 100 µM
- TGI [9]: > 100 µM
- TGI [10]: > 100 µM

Structure (SMILES): CN(C)C(=O)c1cc2cnc(Nc3ccc(-c4csc5c(=O)cc(N6CCOCC6)oc45)cc3)nc2n1C1CCCC1
- GI50 [1]: 0.224 µM
- TGI [1]: 1.35 µM
- GI50 [2]: 0.0877 µM
- TGI [2]: 0.698 µM
- GI50 [3]: 0.247 µM
- TGI [3]: 1.3 µM
- GI50 [4]: 0.375 µM
- TGI [4]: > 65.6 µM
- GI50 [5]: 0.293 µM
- TGI [5]: > 53.7 µM
- GI50 [6]: 0.22 µM
- TGI [6]: 1.47 µM
- GI50 [7]: 0.154 µM
- TGI [7]: 0.417 µM
- GI50 [8]: 0.101 µM
- TGI [8]: > 80 µM
- GI50 [9]: 0.2 µM
- TGI [9]: > 100 µM
- GI50 [10]: 0.0537 µM
- TGI [10]: 0.287 µM

Structure (SMILES): COc1ccc2nc3cc(Cl)ccc3c(NCCCNCCC(C)O)c2c1 (stereo not given)
- GI50 [1]: 0.735 µM
- TGI [1]: 3.6 µM
- GI50 [2]: 1.65 µM
- TGI [2]: 3.92 µM
- GI50 [3]: 0.196 µM
- TGI [3]: 0.75 µM
- GI50 [4]: 2.46 µM
- TGI [4]: 15.5 µM
- GI50 [5]: 0.282 µM
- TGI [5]: 1.04 µM
- GI50 [6]: 0.496 µM
- TGI [6]: 2.35 µM
- GI50 [7]: 0.345 µM
- TGI [7]: 1.49 µM
- GI50 [8]: 0.156 µM
- TGI [8]: 1.74 µM
- GI50 [9]: 0.495 µM
- TGI [9]: 2.34 µM
- GI50 [10]: 1.11 µM
- TGI [10]: 3.27 µM

Structure (SMILES): COc1ccc2c(c1)C(c1ccccc1Cl)=Nc1c(n[nH]c1C)N2
- GI50 [1]: 14 µM
- TGI [1]: > 25 µM
- GI50 [2]: > 25 µM
- TGI [2]: > 25 µM
- GI50 [3]: > 20 µM
- TGI [3]: > 25 µM
- GI50 [4]: > 25 µM
- TGI [4]: > 25 µM
- GI50 [5]: > 25 µM
- TGI [5]: > 25 µM
- GI50 [6]: > 22.7 µM
- TGI [6]: > 25 µM
- GI50 [7]: 4.95 µM
- TGI [7]: > 18.8 µM
- GI50 [8]: 10.5 µM
- TGI [8]: > 25 µM
- GI50 [9]: 5.74 µM
- TGI [9]: > 25 µM
- GI50 [10]: 13.9 µM
- TGI [10]: > 25 µM

Structure (SMILES): c1ccc(-c2nc(-c3ccccc3)c(-c3ccccc3)[nH]2)cc1
- TGI [1]: > 100 µM
- TGI [2]: 36.9 µM
- TGI [3]: > 100 µM
- TGI [4]: > 100 µM
- TGI [5]: > 100 µM
- TGI [6]: > 100 µM
- TGI [7]: > 100 µM
- TGI [8]: 46.3 µM
- TGI [9]: > 100 µM
- TGI [10]: > 100 µM

Structure (SMILES): O=C(N/N=C/c1ccccc1O)C(=O)Nc1ccc(F)cc1
- GI50 [1]: 1.86 µM
- TGI [1]: > 100 µM
- GI50 [2]: 2.02 µM
- TGI [2]: 8.75 µM
- GI50 [3]: 3.01 µM
- TGI [3]: 52 µM
- GI50 [4]: 3 µM
- TGI [4]: > 100 µM
- GI50 [5]: 2.53 µM
- TGI [5]: > 100 µM
- GI50 [6]: 4.21 µM
- TGI [6]: > 100 µM
- GI50 [7]: 2.98 µM
- TGI [7]: 18.5 µM
- GI50 [8]: 2.52 µM
- TGI [8]: > 100 µM
- GI50 [9]: 2.75 µM
- TGI [9]: > 100 µM
- GI50 [10]: 2.18 µM
- TGI [10]: 54.1 µM

Structure (SMILES): CCCCCCCCCCCCSC(=N)N
- GI50 [1]: 2.96 µM
- TGI [1]: 11.5 µM
- GI50 [2]: 2.02 µM
- TGI [2]: 4.27 µM
- GI50 [3]: 5.21 µM
- TGI [3]: 21.6 µM
- GI50 [4]: 10.5 µM
- TGI [4]: 26.3 µM
- GI50 [5]: 7.93 µM
- TGI [5]: 27.9 µM
- GI50 [6]: 9.13 µM
- TGI [6]: 23 µM
- GI50 [7]: 15.2 µM
- TGI [7]: 32 µM
- GI50 [8]: 1.79 µM
- TGI [8]: 4.4 µM
- GI50 [9]: 2.64 µM
- TGI [9]: 8.74 µM
- GI50 [10]: 5.71 µM
- TGI [10]: 19.8 µM

Structure (SMILES): O=C(c1ccco1)c1c(C(F)(F)F)n([O-])c2ccccc2[n+]1=O
- GI50 [1]: 0.785 µM
- TGI [1]: 3.85 µM
- GI50 [2]: 0.175 µM
- TGI [2]: 1.42 µM
- GI50 [3]: 0.468 µM
- TGI [3]: 1.98 µM
- GI50 [4]: 0.879 µM
- TGI [4]: 12.7 µM
- GI50 [5]: 5.45 µM
- TGI [5]: 15.4 µM
- GI50 [6]: 0.338 µM
- TGI [6]: 3.61 µM
- GI50 [7]: 0.28 µM
- TGI [7]: 0.712 µM
- GI50 [8]: 0.0737 µM
- TGI [8]: 0.523 µM
- GI50 [9]: 0.719 µM
- TGI [9]: 18.2 µM
- GI50 [10]: 0.755 µM
- TGI [10]: 2.03 µM

Structure (SMILES): COc1cc2c[n+](C)c3c4ccccc4ccc3c2cc1OC (tested in a mixture with another compound)
- TGI [1]: > 100 µM
- GI50 [2]: 4.56 µM
- TGI [2]: > 84.2 µM
- GI50 [3]: 0.785 µM
- TGI [3]: 4.37 µM and 11.6 µM
- TGI [4]: > 100 µM
- GI50 [5]: 4.04 µM
- TGI [5]: 43.2 µM
- TGI [6]: 20.1 µM
- GI50 [7]: 1.54 µM
- TGI [7]: 5.65 µM and 25 µM
- GI50 [8]: 0.818 µM
- GI50 [9]: 1.31 µM
- TGI [9]: 6.36 µM and 16.9 µM
- TGI [10]: > 100 µM
